Laboratory results from US20190038624A1 (priority 2017, published 2019).

Key:
[1] = system: patient with probable multiple system atrophy; type: in vivo, human; conditions: single MSA patient, oral Nilotinib 200 mg
Description: A person who presented with inability to walk. The disease started 4 years ago with a slowing of their gait and tremors at rest in both hands. […] They had been experiencing dizziness, dysphagia during the past year, and urinary urgency during the previous six months.
Upon admission, the patient could not walk without assistance and needed intermittent bladder catheterization because of urinary incontinence. […] Informed consent was obtained from the patient and their family before treatment of oral Nilotinib 200 mg […]. The monthly monitoring included a physical and a neurological exam, an electrocardiogram, and complete blood count and chemistry.

[2] = system: patients with probable MSA; type: in vivo, human; conditions: oral 200 mg daily
Protocol: Five patients fulfilled the consensus criteria for “probable MSA” and received oral Nilotinib 200 mg daily for 24 weeks. Disease progression was monitored every 4 weeks by measuring the patient's motor and non-motor symptoms with the Unified Multiple System Atrophy Rating Scale (UMSARS). Mini Mental State Examination (MMSE) was used to screen for cognitive impairment. […] However, these AEs resolved with continued administration of the drug. […] Furthermore, there was a significant decline of 6.8 and 2.2 points in the UMSARS and UMSARS-II, respectively, compared to baseline (see FIG. 2). MMSE results were normal throughout treatment.

PD and DLB subjects = conditions: 24 weeks of treatment with 300 mg Nilotinib; cited from earlier work
[3] = average of five MSA patients, 24 weeks

## Cc1cn(-c2cc(NC(=O)c3ccc(C)c(Nc4nccc(-c5cccnc5)n4)c3)cc(C(F)(F)F)c2)cn1 [Nilotinib]
[1]; 24 weeks
  non-motor symptoms (swallowing, constipation, urinary function): significant improvement of non-motor symptoms
[1]; 24 weeks, could not walk without assistance upon admission
  walking ability at the end of the study: could walk slowly without assistance
[1]; 24 weeks, no hospitalization, resolved with continuous use
  nonserious adverse events: mild skin irritation, dizziness, and mild headache
[1]; week 24
  decrease on the UMSARS compared with baseline: 11 points
  decrease on the UMSARS-II compared with baseline: 6 points
[2]; [3]
  decline in the UMSARS compared to baseline: 6.8 points
  decline in the UMSARS-II compared to baseline: 2.2 points
[2]; five MSA patients, end of 24 weeks
  non-motor symptoms (swallowing, constipation, urinary function): improvement of non-motor symptoms
PD and DLB subjects
  decline in UPDRS I-IV: 11.1 points
